# Square brackets hold non-standard residues; d marks the D form. Peptide text beside a SMILES is read from it. * marks the point of attachment. ξ: configuration not given here. ξF = NC(Cc1ccccc1)C(=O)O; Cbz = O=C(OCc1ccccc1)*
# Experiments:
# [1] = Cytotoxicity against african green monkey Vero cells incubated for 3 days; format: toxicity, cell-based; conditions: chlorocebus sabaeus, time 3 day
# Ebolavirus = assay: microbe, parasite or virus in culture; format: functional, organism-based; conditions: Orthoebolavirus
# [2] = Antiviral activity against pseudovirus SARS-CoV spike protein infected in HeLa cells over expressing ACE2 assessed as inhibition on pseudovirus infection incubated for 52 hrs by luminescence based microplate reader analysis; format: functional, cell-based
# [3] = target: T1, Angiotensin-converting enzyme 2 (Homo sapiens, UniProt Q9BYF1); assay: Binding affinity to ACE2 (unknown origin) at 10 uM assessed as inhibition constant
# Procathepsin L = Procathepsin L (Homo sapiens, UniProt P07711); assay: Inhibition of human recombinant Cathepsin L […] using Z-FR-AMC as substrate incubated for 30 mins by fluorometric assay
# Human coronavirus 229E = assay: Antiviral activity against HCoV-229E; format: functional, organism-based
# [4] = target: T1, Angiotensin-converting enzyme 2; assay: Inhibition of human recombinant ACE2 at 50 uM using (7Mca-Y-V-A- D -A-P- K(Knp) as a flurogenic substrate measured after 10 mins by fluorescence based analysis
# [5] = target: T1, Angiotensin-converting enzyme 2; assay: Inhibition of SARS-CoV S binding to human recombinant ACE2 expressed in Escherichia coli BL21(DE3) incubated for 2 hrs by ELISA method
# [6] = target: T1, Angiotensin-converting enzyme 2; assay: Inhibition of human ACE2 (unknown origin) at 0.5 uM
# [7] = Selectivity index, ratio of CC50 for African green monkey Vero cells to EC50 for SARS-CoV-2 nCoV-2019; format: toxicity; conditions: read-out: Selectivity Index
# [8] = target: T1, Angiotensin-converting enzyme 2; assay: Inhibition of human recombinant ACE2
# SARS-CoV = assay: Antiviral activity against SARS-CoV infected in African green monkey Vero cells assessed as viral growth inhibition; format: functional, organism-based; conditions: Severe acute respiratory syndrome-related coronavirus
# [9] = Inhibition of MERS-CoV S protein RBD (E367 to Y606 residues) expressed in Fc portion of the human IgG1 in CHO cells by chromatography method; set-up: species or system Middle East respiratory syndrome-related coronavirus
# SARS-CoV-2 = assay: Antiviral activity against SARS-COV2 infected in African green monkey Vero B cells incubated for 48 hrs by ELISA; format: functional, organism-based; conditions: Severe acute respiratory syndrome coronavirus 2, Vero B
# [10] = Inhibition of MERS-CoV Main protease; set-up: species or system Middle East respiratory syndrome-related coronavirus
# [11] = Antiviral activity against HCoV-NL63 assessed as viral growth inhibition; format: functional, Human coronavirus NL63
# Mus musculus = assay: Antiviral activity against MERS-COV infected in BALB/c mouse at 5 mg/kg; format: functional, organism-based
# Human coronavirus OC43 = assay: Antiviral activity against HCoV-OC43 assessed as viral growth inhibition; format: functional, organism-based; conditions: Betacoronavirus 1
# [12] = Inhibition of clathrin mediated endocytosis (unknown origin); set-up: species or system Homo sapiens
# Sequence of Procathepsin L (P07711 whole entry): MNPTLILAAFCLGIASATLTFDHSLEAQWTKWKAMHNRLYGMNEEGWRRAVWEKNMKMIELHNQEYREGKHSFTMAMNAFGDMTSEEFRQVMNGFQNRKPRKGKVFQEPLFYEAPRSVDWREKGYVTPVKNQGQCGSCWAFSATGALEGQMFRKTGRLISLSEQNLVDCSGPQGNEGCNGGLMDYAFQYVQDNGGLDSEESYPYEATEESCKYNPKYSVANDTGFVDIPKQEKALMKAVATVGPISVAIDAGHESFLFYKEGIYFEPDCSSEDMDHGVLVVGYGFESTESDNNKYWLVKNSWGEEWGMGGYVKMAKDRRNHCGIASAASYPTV
# T1 sequence (Q9BYF1 whole entry): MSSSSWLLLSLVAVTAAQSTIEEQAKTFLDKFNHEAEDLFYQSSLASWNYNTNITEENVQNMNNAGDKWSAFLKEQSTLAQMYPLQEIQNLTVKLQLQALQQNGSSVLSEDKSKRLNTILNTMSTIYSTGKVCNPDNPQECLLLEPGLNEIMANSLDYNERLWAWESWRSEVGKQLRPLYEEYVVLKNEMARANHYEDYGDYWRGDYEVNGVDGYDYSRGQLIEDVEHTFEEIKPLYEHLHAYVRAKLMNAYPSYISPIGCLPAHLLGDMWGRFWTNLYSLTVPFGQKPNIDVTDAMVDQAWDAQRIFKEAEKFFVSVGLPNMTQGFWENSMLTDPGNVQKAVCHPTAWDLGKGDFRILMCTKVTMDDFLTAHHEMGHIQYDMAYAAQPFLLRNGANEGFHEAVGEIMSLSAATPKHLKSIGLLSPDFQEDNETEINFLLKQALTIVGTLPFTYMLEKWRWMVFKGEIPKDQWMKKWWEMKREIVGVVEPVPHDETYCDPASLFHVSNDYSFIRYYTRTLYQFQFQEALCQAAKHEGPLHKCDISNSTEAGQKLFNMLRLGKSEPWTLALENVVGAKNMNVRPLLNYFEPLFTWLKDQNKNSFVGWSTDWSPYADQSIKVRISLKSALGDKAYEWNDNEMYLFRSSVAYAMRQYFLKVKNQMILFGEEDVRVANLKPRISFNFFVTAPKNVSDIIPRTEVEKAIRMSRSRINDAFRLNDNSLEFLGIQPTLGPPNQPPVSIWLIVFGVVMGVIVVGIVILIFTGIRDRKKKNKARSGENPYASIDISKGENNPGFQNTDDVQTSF
smiles,measurement,setting,value
COc1ccc(S(=O)(=O)O)cc1/N=N/c1c(S(=O)(=O)O)cc2cc(Nc3nc(Nc4ccccc4)nc(Nc4cc(C)c(/N=N/c5cc(S(=O)(=O)O)cc6cc(S(=O)(=O)O)cc(O)c56)cc4OC)n3)ccc2c1O,CC50 at 72 h,[1],26.9 µM
CC(C)(C)OC(=O)N[C@@H](Cc1c[nH]c2ccccc12)C(=O)NNC(=O)OCC(=O)N1CCCc2ccccc21,EC50,Ebolavirus,0.193 µM
same,EC50,[2],0.273 µM
NCCNCCN1CC1,Ki,[3],459 µM
C/C(=N/NC(N)=S)c1cccs1,EC50,[2],6.4 µM
same,IC50,Procathepsin L,5.33 µM
same,CC50 at 72 h,[1],100 µM
O=C(NC(Cc1ccccc1)C(=O)N1CCC(O)(c2ccc(Br)cc2)CC1)c1ccccc1 (stereo unspecified),EC50,Human coronavirus 229E,110 µM
CC(C)CC(CC(=O)NO)C(=O)NC(C(=O)NC(C)C(=O)NCCN)C(C)(C)C (stereo unspecified),IC50,[4],0.2 µM
C=C(N[C@@H](CCCN=C(N)N)C(=O)Cl)[C@@H](CCCCN)NC(=O)[C@H](NC(=O)[C@H](CCCN=C(N)N)NC(=O)CCCCCCCCCC)C(C)C,IC50,Procathepsin L,75 µM
CC[C@H](C)[C@H](NC(=O)[C@H](CO)NC(=O)[C@H](CCCCN)NC(=O)[C@H](CCC(N)=O)NC(=O)[C@H](CO)NC(=O)[C@@H](NC(=O)[C@@H](N)CO)[C@@H](C)O)C(=O)N[C@H](C(=O)N[C@@H](C)C(=O)N[C@@H](Cc1ccc(O)cc1)C(=O)N[C@H](C(=O)N[C@@H](CCSC)C(=O)O)[C@@H](C)O)C(C)C,IC50,[5],0.00188 µM
CC(C)C[C@H](NC(=O)[C@@H]1CCCN1C(=O)[C@H](CO)NC(=O)[C@H](CS)NC(=O)[C@H](Cc1cnc[nH]1)NC(=O)[C@H](CO)NC(=O)[C@H](Cc1ccc(O)cc1)NC(=O)[C@H](CC(=O)O)NC(=O)CN)C(=O)N[C@@H](CCCNC(=N)N)C(=O)N[C@@H](Cc1ccc(O)cc1)C(=O)N[C@@H](Cc1ccc(O)cc1)C(=O)N1CCC[C@H]1C(=O)N[C@@H](Cc1c[nH]c2ccccc12)C(=O)N[C@@H](Cc1c[nH]c2ccccc12)C(=O)N[C@@H](CCCCN)C(=O)N[C@@H](CS)C(=O)N[C@H](C(=O)N[C@@H](Cc1ccc(O)cc1)C(=O)N1CCC[C@H]1C(=O)N[C@@H](CC(=O)O)C(=O)N1CCC[C@H]1C(=O)N[C@@H](CCC(=O)O)C(=O)NCC(=O)NCC(=O)NCC(=O)O)[C@@H](C)O,Ki,[3],0.0028 µM
same,IC50,[6],0.01 µM
CC[C@H](C)[C@@H](NC(=O)[C@H]1CCCN1C(=O)[C@H](CCC(N)=O)NC(=O)[C@H](Cc1ccc(O)cc1)NC(=O)CNC(=O)[C@H](CCCCN)NC(=O)[C@H](Cc1ccc(O)cc1)NC(=O)[C@@H](NC(=O)[C@H](Cc1ccc(O)cc1)NC(=O)[C@H](CC(C)C)NC(=O)[C@H](Cc1ccccc1)NC(=O)CN)C(C)C)C(=O)O,IC50,[5],0.0043 µM
CC(C)CC(CC(=O)NO)C(=O)NC(Cc1ccc2ccccc2c1)C(=O)NC(C)C(N)=O (stereo unspecified),IC50,[4],0.1 µM
O=C(OC[C@H]1O[C@@H](OC(=O)c2cc(O)c(O)c(O)c2)[C@H](OC(=O)c2cc(O)c(O)c(O)c2)[C@H](OC(=O)c2cc(O)c(O)c(O)c2)[C@@H]1O)c1cc(O)c(O)c(O)c1,selectivity ratio,[7],240
same,CC50 at 72 h,[1],1080 µM
OC(COc1cccc(OCC(O)CN2CCCCC2)c1)CN1CCCCC1 (stereo unspecified),EC50,[2],3 µM
CC(C)CC(NC(Cc1cncn1Cc1cc(Cl)cc(Cl)c1)C(=O)O)C(=O)O (stereo unspecified),IC50,[4],0.00044 µM
O=C(Nc1ccc2c(c1)C(=O)c1ccccc1C2=O)c1ccccc1,IC50,[8],9.7 µM
same,CC50 at 72 h,[1],20 µM
CC[C@H](C)[C@H](NC(=O)CNC(=O)[C@@H](NC(=O)[C@@H](NC(=O)[C@@H](NC(=O)[C@H](Cc1ccc(O)cc1)NC(=O)[C@@H](N)Cc1ccccc1)[C@@H](C)O)[C@@H](C)O)[C@@H](C)O)C(=O)NCC(=O)N[C@@H](Cc1ccc(O)cc1)C(=O)N[C@@H](CCC(N)=O)C(=O)N1CCC[C@@H]1C(=O)N[C@H](Cc1ccc(O)cc1)C(=O)O,IC50,[5],0.00699 µM
CCC[C@@H]([C@@H](CC(C)C)C(=O)N[C@@H](CCCCNC(=O)OCc1ccccc1)C(=O)Nc1nccs1)N(O)C=O,IC50,[4],0.001 µM
CC[C@H](C)[C@H](NC(=O)[C@H](C)NC(=O)[C@H](CCCCN)NC(=O)[C@H](CC(N)=O)NC(=O)[C@H](Cc1ccccc1)NC(=O)[C@H](CCC(N)=O)NC(=O)[C@H](CC(N)=O)NC(=O)[C@H](C)NC(=O)[C@@H](NC(=O)[C@H](CCC(N)=O)NC(=O)[C@H](CCCCN)NC(=O)[C@H](CCC(N)=O)NC(=O)[C@H](CC(N)=O)NC(=O)[C@H](CCC(=O)O)NC(=O)[C@@H](N)Cc1ccc(O)cc1)[C@@H](C)CC)C(=O)N[C@@H](CO)C(=O)N[C@@H](CCC(N)=O)C(=O)N[C@H](C(=O)N[C@@H](CCC(N)=O)C(=O)N[C@@H](CCC(=O)O)C(=O)N[C@@H](CO)C(=O)N[C@@H](CC(C)C)C(=O)N[C@H](C(=O)N[C@H](C(=O)N[C@H](C(=O)N[C@@H](CO)C(=O)N[C@H](C(=O)N[C@@H](C)C(=O)O)[C@@H](C)O)[C@@H](C)O)[C@@H](C)O)[C@@H](C)O)[C@@H](C)CC,EC50,SARS-CoV,1.61 µM
CC[C@H](C)[C@H](NC(=O)[C@H](Cc1ccc(O)cc1)NC(=O)[C@H](CO)NC(=O)[C@H](CCC(=O)O)NC(=O)[C@H](CC(N)=O)NC(=O)[C@H](CC(C)C)NC(=O)[C@H](C)NC(=O)[C@H](CCCCN)NC(=O)[C@@H](NC(=O)[C@@H](NC(=O)[C@H](CCC(N)=O)NC(=O)[C@H](CCC(N)=O)NC(=O)[C@H](CC(C)C)NC(=O)[C@H](CO)NC(=O)[C@H](CC(C)C)NC(=O)[C@H](CCSC)NC(=O)[C@H](CCC(=O)O)NC(=O)[C@H](Cc1ccc(O)cc1)NC(=O)[C@@H](NC(=O)[C@H](CC(C)C)NC(=O)[C@H](CC(=O)O)NC(=O)[C@H](CC(C)C)NC(=O)[C@H](CC(C)C)NC(=O)[C@@H](NC(=O)[C@@H](NC(=O)[C@H](CC(N)=O)NC(=O)[C@@H](NC(=O)[C@H](CCC(N)=O)NC(=O)[C@@H](NC(=O)[C@H](CC(C)C)NC(=O)[C@@H](N)CO)[C@@H](C)O)[C@@H](C)CC)[C@@H](C)O)[C@@H](C)O)[C@@H](C)O)C(C)C)C(C)C)C(=O)N[C@@H](CC(=O)O)C(=O)N[C@@H](CC(C)C)C(=O)N[C@@H](CCCCN)C(=O)N[C@@H](CCC(=O)O)C(=O)N[C@@H](CC(C)C)C(=O)O,IC50,[9],0.6 µM
same,EC50,SARS-CoV-2,> 1000 µM
CC[C@H](C)[C@H](NC(=O)[C@H](C)NC(=O)[C@H](CCC(=O)O)NC(=O)[C@H](CCC(=O)O)NC(=O)[C@H](CC(C)C)NC(=O)[C@H](CCCCN)NC(=O)[C@H](CCCCN)NC(=O)[C@H](CCSC)NC(=O)[C@H](CCC(=O)O)NC(=O)[C@H](Cc1ccc(O)cc1)NC(=O)[C@H](CCC(=O)O)NC(=O)[C@H](CC(C)C)NC(=O)[C@H](CC(=O)O)NC(=O)[C@H](CC(C)C)NC(=O)[C@H](Cc1ccccc1)NC(=O)[C@@H](NC(=O)[C@@H](NC(=O)[C@H](CC(N)=O)NC(=O)[C@@H](NC(=O)[C@H](CCC(N)=O)NC(=O)[C@H](CC(=O)O)NC(=O)[C@H](CC(C)C)NC(=O)[C@@H](N)CO)[C@@H](C)CC)C(C)C)[C@@H](C)O)C(=O)N[C@@H](CCCCN)C(=O)N[C@@H](CCCCN)C(=O)N[C@@H](CC(C)C)C(=O)N[C@@H](CCC(=O)O)C(=O)N[C@@H](CCC(=O)O)C(=O)N[C@@H](CO)C(=O)N[C@@H](Cc1ccc(O)cc1)C(=O)N[C@H](C(=O)N[C@@H](CC(=O)O)C(=O)N[C@@H](CC(C)C)C(=O)N[C@@H](CCCCN)C(=O)N[C@@H](CCC(=O)O)C(=O)N[C@@H](CC(C)C)C(=O)O)[C@@H](C)CC,IC50,[10],0.19 µM
same,IC50,[11],6.02 µM
same,IC50,Mus musculus,2.38 µM
same,IC50,Human coronavirus 229E,3.35 µM
same,IC50,Human coronavirus OC43,1.81 µM
CC(C)[C@H](NC(=O)OCc1ccccc1)C(=O)NC(C=O)Cc1ccccc1 (stereo partly drawn) (Cbz-Val-[ξF]-aldehyde),EC50,[2],0.1 µM
CN(C)C(=O)COC(=O)Cc1ccc(OC(=O)c2ccc(NC(=N)N)cc2)cc1 [CAMOSTAT],IC50,Procathepsin L,10 µM
CCN(CC)CCCC(C)Nc1ccnc2cc(Cl)ccc12 (stereo unspecified) [CHLOROQUINE],IC50,SARS-CoV-2,1.13 µM
same,IC50,[4],1.13 µM
same,CC50 at 72 h,[1],> 100 µM
CN(C)CCCN1c2ccccc2Sc2ccc(Cl)cc21 [CHLORPROMAZINE],IC50,[12],7.24 µM
CCN(CCO)CCCC(C)Nc1ccnc2cc(Cl)ccc12 (stereo unspecified) [HYDROXYCHLOROQUINE],IC50,[4],0.72 µM
CN1CCN(C(=O)N[C@@H](Cc2ccccc2)C(=O)N[C@H](/C=C/S(=O)(=O)c2ccccc2)CCc2ccccc2)CC1 [K-777],IC50,[11],0.00678 µM
same,IC50,[9],0.0461 µM
same,IC50,Human coronavirus 229E,0.00148 µM
same,CC50 at 72 h,[1],> 10 µM
O=c1cc(-c2ccc(O)c(O)c2)oc2cc(O)cc(O)c12 [LUTEOLIN],selectivity ratio,[7],14.6
same,CC50 at 72 h,[1],155 µM
CC(CN1c2ccccc2Sc2ccccc21)N(C)C (stereo unspecified) [PROMETHAZINE],IC50,[12],7.48 µM
O=c1c(O)c(-c2ccc(O)c(O)c2)oc2cc(O)cc(O)c12 [QUERCETIN],CC50 at 72 h,[1],3320 µM

# From ChEMBL document CHEMBL5230087, “Inhibitors of SARS-CoV-2 Entry: Current and Future Opportunities” (J Med Chem, 2020)
